Laboratory results: patent US5126336A, “Antibiotic C-3 catechol-substituted cephalosporin compounds, compositions and method of use thereof” (Bristol-Myers Squibb Company, priority 1990, dated 1992)
Like-named read-outs stand apart in the source and are kept apart here.

Columns and labels:
Experiment in all cases: MIC, agar dilution
Type in all cases: cell-based
S. aureus 209P = settings: Staphylococcus aureus
Procedure: (§1) Minimum inhibitory concentrations (MICs) of the present series of cephalosporins were determined against 32 strains of test organisms by two-fold serial agar dilution method in Mueller-Hinton agar. Geometric means of MICs were calculated against six groups of the test organisms which are classified as follows and summarized in Table 1.
(§2) Medium; MuellerHinton agar (pH = 7.2)
(§3) Incubation temperature: 32° C., 18 hr
(§4) Inoculum size; 10^6 cells/ml

P. aeruginosa IPM-9 = settings: Pseudomonas aeruginosa, IPM9, Mueller-Hinton agar pH 7.2, 32° C., 18 hr, 10^6 cells/ml
Procedure: as §1, §2, §3, §4

S. marcescens IPM-16 = settings: Serratia marcescens, IPM16, Mueller-Hinton agar pH 7.2, 32° C., 18 hr, 10^6 cells/ml
Procedure: as §1, §2, §3, §4

E. cloacae IPM-12 = settings: Enterobacter cloacae, IPM12, Mueller-Hinton agar pH 7.2, 32° C., 18 hr, 10^6 cells/ml
Procedure: as §1, §2, §3, §4

P. rettgeri IPM-14 = settings: Providencia rettgeri, IPM14, Mueller-Hinton agar pH 7.2, 32° C., 18 hr, 10^6 cells/ml
Procedure: as §1, §2, §3, §4

B. subtilis PCI 219 = settings: Bacillus subtilis, PCI219, Mueller-Hinton agar pH 7.2, 32° C., 18 hr, 10^6 cells/ml
Procedure: as §1, §2, §3, §4

E. faecalis A9808 = settings: Enterococcus faecalis, Mueller-Hinton agar pH 7.2, 32° C., 18 hr, 10^6 cells/ml
Procedure: as §1, §2, §3, §4

S. aureus 4-1015 (MRSA) = settings: Staphylococcus aureus, Mueller-Hinton agar pH 7.2, 32° C., 18 hr, 10^6 cells/ml
Procedure: as §1, §2, §3, §4

S. aureus IPM-24 (MRSA) = settings: Staphylococcus aureus, Mueller-Hinton agar pH 7.2, 32° C., 18 hr, 10^6 cells/ml
Procedure: as §1, §2, §3, §4

P. mirabilis IFO-2849 = settings: Proteus mirabilis, IFO2849, Mueller-Hinton agar pH 7.2, 32° C., 18 hr, 10^6 cells/ml
Procedure: as §1, §2, §3, §4

M. morgani 1510/9 = settings: Mueller-Hinton agar pH 7.2, 32° C., 18 hr, 10^6 cells/ml
Procedure: as §1, §2, §3, §4

P. cepacia A21213 = settings: Burkholderia cepacia, Mueller-Hinton agar pH 7.2, 32° C., 18 hr, 10^6 cells/ml
Procedure: as §1, §2, §3, §4

X. maltophilia GN 12873 = settings: Stenotrophomonas maltophilia, GN12873, Mueller-Hinton agar pH 7.2, 32° C., 18 hr, 10^6 cells/ml
Procedure: as §1, §2, §3, §4

P. aeruginosa KKA 19 = settings: Pseudomonas aeruginosa, KKA19, Mueller-Hinton agar pH 7.2, 32° C., 18 hr, 10^6 cells/ml
Procedure: as §1, §2, §3, §4

P. aeruginosa IPM-8 = settings: Pseudomonas aeruginosa, IPM8, Mueller-Hinton agar pH 7.2, 32° C., 18 hr, 10^6 cells/ml
Procedure: as §1, §2, §3, §4

E. coli 255 = settings: Escherichia coli, Mueller-Hinton agar pH 7.2, 32° C., 18 hr, 10^6 cells/ml
Procedure: as §1, §2, §3, §4

S. marcescens IPM-15 = settings: Serratia marcescens, IPM15, Mueller-Hinton agar pH 7.2, 32° C., 18 hr, 10^6 cells/ml
Procedure: as §1, §2, §3, §4

X. maltophilia No. 661 = settings: Stenotrophomonas maltophilia, Mueller-Hinton agar pH 7.2, 32° C., 18 hr, 10^6 cells/ml
Procedure: as §1, §2, §3, §4

M. morgani 1510 = settings: Mueller-Hinton agar pH 7.2, 32° C., 18 hr, 10^6 cells/ml
Procedure: as §1, §2, §3, §4

M. luteus 1001 = settings: Micrococcus luteus, Mueller-Hinton agar pH 7.2, 32° C., 18 hr, 10^6 cells/ml
Procedure: as §1, §2, §3, §4

S. epidermidis 11-1230 = settings: Staphylococcus epidermidis, 111230, Mueller-Hinton agar pH 7.2, 32° C., 18 hr, 10^6 cells/ml
Procedure: as §1, §2, §3, §4

S. epidermidis 11-1168 = settings: Staphylococcus epidermidis, 111168, Mueller-Hinton agar pH 7.2, 32° C., 18 hr, 10^6 cells/ml
Procedure: as §1, §2, §3, §4

P. aeruginosa A20599 = settings: Pseudomonas aeruginosa, Mueller-Hinton agar pH 7.2, 32° C., 18 hr, 10^6 cells/ml
Procedure: as §1, §2, §3, §4

C. terrigena IFO 12685 = settings: Mueller-Hinton agar pH 7.2, 32° C., 18 hr, 10^6 cells/ml
Procedure: as §1, §2, §3, §4

P. cepacia No. 651 = settings: Burkholderia cepacia, Mueller-Hinton agar pH 7.2, 32° C., 18 hr, 10^6 cells/ml
Procedure: as §1, §2, §3, §4

K. pneumoniae PCI 602 = settings: Klebsiella pneumoniae, PCI602, Mueller-Hinton agar pH 7.2, 32° C., 18 hr, 10^6 cells/ml
Procedure: as §1, §2, §3, §4

P. vulgaris IPM-13 = settings: Proteus vulgaris, IPM13, Mueller-Hinton agar pH 7.2, 32° C., 18 hr, 10^6 cells/ml
Procedure: as §1, §2, §3, §4

C. freundii GN 7391 = settings: Citrobacter freundii, GN7391, Mueller-Hinton agar pH 7.2, 32° C., 18 hr, 10^6 cells/ml
Procedure: as §1, §2, §3, §4

E. faecium A24817 = settings: Enterococcus faecium, Mueller-Hinton agar pH 7.2, 32° C., 18 hr, 10^6 cells/ml
Procedure: as §1, §2, §3, §4

E. coli Juhl A15119 = settings: Escherichia coli, JUHLA15119; E. coli Juhl A15119; Mueller-Hinton agar pH 7.2; 32° C., 18 hr; 10^6 cells/ml; read-out: MIC
In short: (§5)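 MICs read after 18 hr at 32° C on Mueller-Hinton agar (pH 7.2) using two-fold serial dilutions and 10^6 cells/ml inoculum. Mouse infection model: intramuscular dosing immediately post-challenge, PD50 derived.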

P. aeruginosa A9843A = settings: Pseudomonas aeruginosa, A9843A, 18 h, pH 7.2
In short: as §5

S. aureus Smith = settings: Staphylococcus aureus; S. aureus Smith; Mueller-Hinton agar pH 7.2; 32° C., 18 hr; 10^6 cells/ml; read-out: MIC
In short: as §5

Measured: MIC

Nc1nc(/C(=N/O)C(=O)NC2C(=O)N3C(C(=O)O)=C(/C=C/Cn4ccc5cc(=O)c(O)cc-5c4)CS[C@H]23)cs1 (stereo partly shown) [Is, 7-[(Z)-2-(2-Aminothiazol-4-yl)-2-hydroxyiminoacetamido]-3-[(E)-3-(2,6-dihydro-7-hydroxy-6-oxo-isoquinolin-2-yl)-1-propen-1-yl]-3-cephem-4-carboxylic acid]
0.2 µg/mL: M. morgani 1510/9 | E. coli Juhl A15119
3.1 µg/mL: S. aureus 4-1015 (MRSA) | S. epidermidis 11-1230
0.8 µg/mL: S. aureus 209P; S. aureus 209P, Mueller-Hinton agar pH 7.2, 32° C., 18 hr, 10^6 cells/ml, read-out: MIC | B. subtilis PCI 219 | S. aureus Smith
> 100 µg/mL: P. aeruginosa IPM-9 | S. marcescens IPM-16 | E. cloacae IPM-12 | P. cepacia A21213 | X. maltophilia GN 12873 | P. aeruginosa KKA 19 | P. aeruginosa IPM-8 | S. marcescens IPM-15 | X. maltophilia No. 661 | P. aeruginosa A20599 | P. cepacia No. 651 | P. vulgaris IPM-13 | C. freundii GN 7391 | P. aeruginosa A9843A
0.1 µg/mL: K. pneumoniae PCI 602
1.6 µg/mL: P. rettgeri IPM-14 | C. terrigena IFO 12685
6.3 µg/mL: E. faecalis A9808 | S. epidermidis 11-1168
0.4 µg/mL: P. mirabilis IFO-2849 | E. coli 255 | M. luteus 1001
12.5 µg/mL: S. aureus IPM-24 (MRSA) | M. morgani 1510
100 µg/mL: E. faecium A24817

Nc1nc(/C(=N/O)C(=O)NC2C(=O)N3C(C(=O)O)=C(/C=C/Cn4cnc5cc(O)c(O)cc54)CS[C@H]23)cs1 (stereo partly shown) [Ir, 7-[(Z)-2-(2-Aminothiazol-4-yl)-2-hydroxyiminoacetamido]-3-[(E)-3-(5,6-dihydroxybenzimidazol-1-yl)-1-propen-1-yl]-3-cephem-4-carboxylic acid]
0.4 µg/mL: E. coli Juhl A15119
0.8 µg/mL: P. mirabilis IFO-2849 | M. morgani 1510/9 | E. coli 255 | M. luteus 1001
1.6 µg/mL: B. subtilis PCI 219 | S. aureus Smith
50 µg/mL: C. freundii GN 7391
3.1 µg/mL: S. aureus 209P; 209P, 18 h, pH 7.2 | P. rettgeri IPM-14 | P. aeruginosa IPM-8 | C. terrigena IFO 12685
0.1 µg/mL: K. pneumoniae PCI 602
6.3 µg/mL: P. aeruginosa A9843A
100 µg/mL: S. aureus IPM-24 (MRSA) | S. marcescens IPM-15
12.5 µg/mL: E. faecalis A9808 | S. aureus 4-1015 (MRSA) | P. aeruginosa KKA 19 | S. epidermidis 11-1230 | S. epidermidis 11-1168 | P. aeruginosa A20599
25 µg/mL: M. morgani 1510
> 100 µg/mL: P. aeruginosa IPM-9 | S. marcescens IPM-16 | E. cloacae IPM-12 | P. cepacia A21213 | X. maltophilia GN 12873 | X. maltophilia No. 661 | P. cepacia No. 651 | P. vulgaris IPM-13 | E. faecium A24817
